Assay results as given in US20240287074A1, “SALTS AND CRYSTALS” (Kinoxis Therapeutics Pty Ltd, priority 2020, published 2024).
“Also recorded” adds a separate entry of the source. Structures can show the parent of a compound that is named as a salt.

Experiments:
[1] = Dynamic / gravimetric vapour sorption (DVS/GVS) hygroscopicity; type: physicochemical
Procedure: Approximately, 10-20 mg of sample was placed into a mesh vapour sorption balance pan and loaded into a DVS Intrinsic dynamic vapour sorption balance by Surface Measurement Systems. The sample was subjected to a ramping profile from 40-90% relative humidity (RH) at 10% increments, maintaining the sample at each step until a stable weight had been achieved (dm/dt 0.004%, minimum step length 30 minutes, maximum step length 500 minutes) at 25° C. After completion of the sorption cycle, the sample was dried using the same procedure to 0% RH and then a second sorption cycle back to 40% RH. Two cycles were performed. The weight change during the sorption/desorption cycles were plotted, allowing for the hygroscopic nature of the sample to be determined. XRPD analysis was then carried out on any solid retained.
Approximately 10-20 mg of sample was placed into a mesh vapour sorption balance pan and loaded into an IGASorp Moisture Sorption Analyser balance by Hiden Analytical. The sample was subjected to a ramping profile from 40-90% relative humidity (RH) at 10% increments, maintaining the sample at each step until a stable weight had been achieved (98% step completion, minimum step length 30 minutes, maximum step length 60 minutes) at 25° C. After completion of the sorption cycle, the sample was dried using the same procedure to 0% RH, and finally taken back to the starting point of 40% RH. Two cycles were performed. The weight change during the sorption/desorption cycles were plotted, allowing for the hygroscopic nature of the sample to be determined.

[2] = Primary salt screen: XRPD pattern after drying and after 40° C./75% RH; type: physicochemical
Procedure: The following procedure was used: • Approximately 30 mg of 1-methyl-1,4,5,10-tetrahydropyrazolo[3,4-b][1,5]benzodiazepine freebase was weighed into 5×1.5 mL glass vials. • 300 μL of selected solvent system was added to each vial to form a mobile slurry, and a beige slurry was observed. • 1.05 (or 0.525 for the hemi experiments) equivalents of acid counterion (see Table 1) was added to each sample and initial observations were recorded. • The samples were temperature cycled between ambient and 40° C. in 4-hour cycles for about 72 hours. • The samples were collected, and observations made. • Samples in which solids were observed were filtered via centrifugation and the solids were loaded onto a multi-well XRPD plate and analyzed by XRPD. • Samples in which no solids were observed were uncapped and left undisturbed to allow evaporation at ambient temperature.

[3] = Salt disproportionation studies in deionized water; type: physicochemical; conditions: about 24 hours
Procedure: (§1) The following procedure was used during the salt disproportionation studies: • Approximately 20 mg of phosphate form 1 (Example 3) and L-tartrate form 1 (Example 5) were weighed into 2 mL glass vials. • Deionized water was added to each sample in 100 μL aliquots until a mobile slurry was observed. • The slurries were agitated at ambient temperature for about 24 hours. • The slurries were collected and filtered via centrifugation. • The isolated solids were analyzed by XRPD. • The pH of the mother liquors were recorded.

[4] = Hydration studies in methanol/water mixtures; type: physicochemical; conditions: MeOH/water mixtures, water activity 0.2, 0.6, 0.8, about 24 hours
Procedure: as §1, with “the hydration” for “the salt disproportionation”, “• Selected methanol/deionized” for “• Deionized”, “water mixtures (see Table 5) were” for “water was”

[5] = system: C57BL/6 mouse model of opioid withdrawal; assay: Naloxone precipitated oxycodone withdrawal-induced jumping; type: in vivo; conditions: 7.3 mg/kg FBE i.p., C57BL/6 mice, 30 min session, vs OXY_VEH
Procedure: Two cohorts of adult male C57BL/6 mice were run assessing the effects of 7.3 mg/kg freebase equivalent (FBE) IP of the compound of the invention in the dihydrochloride salt form (CMPD1-2HCL) and the phosphate form 1 (CMPD1-PO4) on naloxone precipitated withdrawal-induced jumping.
The first cohort of mice (N=30) were split into the following conditions: • (1) Vehicle, 0 mg/kg (n=10); • (2) oxycodone, 0 mg/kg compound of the invention FBE in 2HCL salt form (n=10); • (3) oxycodone, 7.3 mg/kg compound of the invention FBE in 2HCL salt form (n=10).
The second cohort of mice (N=24) were split into the following conditions: • (1) Vehicle, 0 mg/kg (n=8); • (2) oxycodone, 0 mg/kg compound of the invention FBE in PO4 salt form (n=8); • (3) oxycodone, 7.3 mg/kg compound of the invention FBE in PO4 salt form (n=8).
Mice in the oxycodone conditions received i.p. injections of oxycodone for 5 days according to the schedule and doses set out in Table 8. The morning and afternoon doses were separated by 7 h. Mice in the vehicle condition received injections of vehicle saline instead of oxycodone. […]
Testing involved placing mice individually into a 20 (I)×20 (w)×30 (h) cm arena for 30 min. […] Number of jumps were scored from the videos by an experienced experimenter blind to conditions.
Data were analysed by SPSS using oneway ANOVA and planned contrasts.

hygroscopicity ([1]; DVS, 25° C.): slightly hygroscopic
DVS mass increase ([1]; at 90% RH): about 0.4%
Post-Drying (XRPD pattern) ([2]; oven at 40° C. for about 24 hours, listed as Phosphate pattern 1): Pattern 1
Comments (stability) ([2]; salt screen summary): Good
Post 40° C./75% RH (XRPD pattern) ([2]; stability chamber at 40° C./75% RH for about 24 hours, listed as Phosphate pattern 1): Pattern 1
change in XRPD pattern ([3]; material slurried in water): No change in XRPD pattern
change in XRPD pattern [4]: No change in XRPD pattern
SMILES: Cn1ncc2c1Nc1ccccc1NC2 [Phosphate form 1, phosphoric acid addition salt of 1-methyl-1,4,5,10-tetrahydropyrazolo[3,4-b][1,5]benzodiazepine]
change in form by XRPD post-DVS analysis [1]: No evidence of form changes or hydrate formation
thermal stability and hygroscopicity ([2]; conclusion of salt screen): acceptable thermal stability and hygroscopicity
salt disproportionation ([3]; slurry in deionized water, ambient temperature): Salt disproportionation was not observed; also recorded: No evidence
hydrate formation [4]: Hydrate formation was not observed; also recorded: No evidence
oxycodone withdrawal-induced jumping [5]: significantly inhibited
